# Laboratory results published in patent publication US20050108047A1, “Business methods for commercializing antibiotics” (priority 2003, published 2005).
# Tested on: E. coli strain MG1655 and isogenic loss of function strains
# Test: Stressful Lifestyle Adaptive Mutation (SLAM) assay with ciprofloxacin
# Format: cell-based
# Description: […]. Five colonies of each strain, selected from 30 ug/mL kan plates, were grown for 24 hours in LB at 37° C. Dilutions of each culture were made in duplicate and plated on LB plates to determine the number of viable cells.
# Also, two 150 μL cultures from each strain were plated on five additional plates for use in ‘survival’ experiments (see below). […] Every twenty-four hours for thirteen days post-plating, colonies were counted and marked and up to 10 representative colonies per strain were stocked in 15% glycerol and stored at −80° C., for use in the reconstruction experiments (see below). […]. After thirteen days, a reconstruction experiment [see FIG. 6; also see Bull, H J, Lombardo, M J, Rosenberg, S M: Stationary-phase mutation in the bacterial chromosome: recombination protein and DNA polymerase IV dependence. Proc Natl Acad Sci USA 2001, 98:8334-8341; and Rosenberg, S M: Evolving responsively: adaptive mutation. Nature Rev Genet 2001, 2:504-515] was performed to determine which of the resistant colonies isolated had evolved resistance via adaptive mutation after exposure to the antibiotic. […]. Only those colonies that grew in a shorter time during the reconstruction experiment than in the original experiment were considered to have acquired an adaptive mutation, i.e. occurred after exposure to the antibiotic. […].
# […]. […]
smiles,measurement,setting,value
O=C(O)c1cn(C2CC2)c2cc(N3CCNCC3)c(F)cc2c1=O [ciprofloxacin],"ability to evolve resistance to ciprofloxacin, LexA(Ind−) strain versus wild type","LexA S119A mutant, 35 ng/mL ciprofloxacin",more than two orders of magnitude less able to evolve resistance
same,"decrease in rate of evolving the ability to grow at 60 ng/mL ciprofloxacin, LexA mutant",mutants selected at 35 ng/mL ciprofloxacin,300 fold
